Laboratory results reported in US7402600B2, “Nitroderivatives of cardiovascular agents” (NicOx S.A., priority 1999, dated 2008).

How the values were obtained:
gastrointestinal mucosa = experiment: Test 1 (NEM): gastric tolerability of precursor drugs in rats treated or not with N-ethylmaleimide
Description: The animals (rats) are distributed in the following groups (no. 10 animals for group):
• 1° group: treatment: only carrier (aqueous suspension 1% w/v of carboxymethylcellulose, dose: 5 ml/Kg when the drug is administered by os, or a physiologic solution when parenterally administered, i.e. by subcutaneous, intraperitoneal, intravenous or intramuscular route), • 2° group: treatment: carrier as above defined+NEM, B) Groups Treated with the Drug: • group I: treatment: carrier+drug, • group II: treatment: carrier+drug+NEM.
The administration routes are those known for the drug, and can be the oral or subcutaneous, intraperitoneal, intravenous or intramuscular route.
(§1) The animals are sacrificed after 24 hours and then one proceeds to the evaluation of the damage to the gastrointestinal mucosa.
Test 1—Experimental Model in Vivo with N-ethylmaleimide (NEM): Study of the Gastric Tolerability of Some Drugs Screened as Precursors of the Compounds of the Invention.
The animals (rats, weight about 200 g) are distributed in the following groups (No. 10 animals for group):
• 1° group: treatment: only carrier (aqueous suspension 1% w/v of carboxymethylcellulose, dose: 5 ml/Kg when the drug is administered by os, physiologic solution when by parenteral route), • 2° group: treatment: carrier+NEM B) Groups Administered with Each Drug: • group I: treatment: carrier+drug, • group II: treatment: carrier+drug+NEM.
The drug is administered one hour later, in suspension in the carrier. Animals are sacrificed after 24 hours and evaluation of the damage to the gastrointestinal mucosa is made by counting the number of rats, inside each group, with lesions to the stomach at a visual inspection. The total number of said rats is then divided by the total number of rats of the group and multiplied by 100.

[1] = tested on: gastrointestinal mucosa, GPT, blood pressure; conditions: rat, in vivo; for Gastroenteropathy % without L-NAME: 4 weeks
Description: The endothelial dysfunction is evaluated by determining the damage to the gastrointestinal mucosa, the hepatic damage and blood hypertension induced by administration of L-NAME.
The animals (rats) are divided in groups as herein below shown. The group receiving L-NAME is treated for 4 weeks with said compound dissolved at a concentration of 400 mg/litre in drinking water. The following groups are constituted (No. 10 animals for group):
(§2) • 1° group: only carrier (aqueous suspension 1% w/v of carboxymethylcellulose, dose: 5 ml/Kg when the drug is administered by os, phisiologic solution when administered parenterally), • 2° group: carrier+L-NAME, B) Groups Administered with the Drug: • 3° group: carrier+drug, • 4° group: carrier+drug+L-NAME.
The administration routes are those known for the drug, and can be the oral or subcutaneous, intraperiteneal, intravenous or intramuscular route. […] The drug is administered once a day for 4 weeks.
At the end of the four weeks treatment access to water is prevented and after 24 hours the animals are sacrificed.
One hour before the sacrifice blood-pressure is determined, and a blood pressure increase is taken as an evaluation of the damage to vascular endothelium. […] The hepatic damage is determined by evaluation of the glutamic-pyruvic transaminase (GPT increase) after sacrifice.
Test 3-Experimental in Vivo Model with N^w-nitro-L-arginine-methyl ester (L-NAME): Gastric Tolerability (Gastrointestinal Damage Incidence), Hepatic (GPT Dosage, Glutamic-pyruvic Transaminase) and Cardiovascular (Blood Pressure) Tolerability of Some Drugs Screened as Precursors of the Compounds of the Invention.
The endothelial dysfunction is evaluated by determining the damage induced by L-NAME administration to the gastrointestinal mucosa, the hepatic damage (GPT increase), and the vascular endothelium or cardiovascular damage as blood hypertension.
The animals (rats, average weight 200 g) are divided in groups as herein below described. The group receiving L-NAME is treated for 4 weeks with said compound dissolved at the concentration of 400 mg/litre in drinking water. The following groups (No. 10 animals for group) are constituted:
as §2, with “group: treatment:” for “group:”, “physiologic” for “phisiologic”, “by parenteral route),” for “administered parenterally),”, “Treated” for “Administered”
Each drug is administered once a day for 4 weeks.
At the end of the four weeks access to water is prevented and after 24 hours the animals are sacrificed.
One hour before the sacrifice blood pressure is determined and a blood pressure increase is taken as an indication of a damage being occurred to vascular endothelium.
The hepatic damage is determined by evaluation after the sacrifice of the glutamic-pyruvic transaminase (GPT increase).
The % gastric lesions have been determined as in Test 1.

rats = experiment: in vivo; conditions: rats not treated with NEM, single dose, s.c.
Description: as §1

[2] = Test 4: inhibition of radical production from DPPH; conditions: tested substance 100 μM in methanol, 30 minutes, absorbance 517 nm
Description: Test 4 is a colorimetric test which must not be satisfied by the precursor of B or B1 (precursor of the X2 or X2a of the formulas (I) and (II) respectively). The inhibition of the production of radicals from DPPH (2,2-diphenyl-1-picryl-hydrazyl) is described in M. S. Nenseter et Al., Atheroscler. Thromb. 15, 1338-1344, 1995. 100 μM solutions in methanol of the tested substances are prepared, and an aliquot of each of said solutions is added to a DPPH solution in methanol 0.1 M. After having stored the solutions at room temperature away from light for 30 minutes, their absorbances are read at the wave length of 517 nm, together with that of the corresponding DPPH solution at the same concentration. The absorbance decrease with respect to that of the solution of DPPH at the same concentration of the test solutions is determined. The effectiveness of the tested compound in inhibiting formation of radicals by DPPH is expressed by the following formula: (1−AS/AC)×100 wherein AS and AC are respectively the absorbance values of the solution containing the test compound together with DPPH and of the solution containing only DPPH. Test 4 is satisfied when the inhibition is equal or greater than 50%.
Test 4: Inhibition of the Radical Production from DPPH of Some Substances Used as Precursors of B or B1 (Ref. Formulas I and II of the Invention)
The method is based on a calorimetric test in which DPPH (2,2-diphenyl-1-picryl-hydrazyl) is used as the compound-forming radicals (M. S. Nenseter et Al., Atheroscler. Thromb. 15, 1338-1344, 1995).
Solutions in methanol of the tested substances at a final concentration 100 μM are initially prepared. 0.1 ml of each of these solutions are added to aliquots of 1 ml of a methanol solution 0.1 M of DPPH and then the final volume is brought to 1.5 ml. After having stored the solutions at room temperature away from light for 30 minutes, the absorbance at the wave length of 517 nm is read. It is determined the absorbance decrease with respect to the absorbance of a solution containing the same concentration of DPPH.
The efficacy of the test compound to inhibit the production of radicals, or antiradical activity, is expressed by the following formula: (1−AS/AC)×100 wherein AS and AC are, respectively, the absorbance values of the solution containing the test compound together+DPPH and of the solution containing only DPPH.

[3] = Test 5: inhibition of radical production from FeII (deoxyribose degradation); conditions: 10^-4 M methanolic solution, 37° C. one hour, absorbance 532 nm
Description: Test 5 is a […] test wherein 0.1 ml aliquots of 10^−4 M methanolic solutions of the tested products are added to test tubes containing a solution formed by 0.2 ml of 2 mM desoxyribose, 0.4 ml of phosphate buffer pH 7.4 100 mM and 0.1 ml of 1 mM Fe^II(NH4)2(SO4)2 in 2 mM HCl. The test tubes are then maintained at 37° C. for one hour. Then in each test tube 0.5 ml of a 2.8% solution in water of trichloroacetic acid and 0.5 ml of an aqueous 0.1 M solution of thiobarbituric acid are added, in the order. A reference blank is formed by adding to a test tube containing only the above described aqueous solution of reactants 0.1 ml of methanol. The test tubes are closed and heated in an oil bath at 100° C. for 15 minutes. A pink coloration is developed the intensity of which is proportional to the quantity of desoxyribose undergone to radical oxidative degradation. The solutions are cooled at room temperature and their absorbances are read at 532 nm against the blank. The inhibition induced by the precursor of B or B1 or C=-Tc-Y—H in the confront of radical production by Fe^II is determined by means of the following formula: (1−As/Ac)×100 wherein As and Ac are respectively the absorbance values of the solution containing the tested compound+the iron salt and that of the solution containing only the iron salt, the compound meets test 5 when the inhibition percentage of radical production as above defined from the precursor of B or B1 or C=-Tc-Y—H is higher than or equal to 50%. […]
0.1 ml aliquots of 10^−4 M methanolic solutions of 4-thiazolidin carboxylic acid and 2-oxo-4-thiazolidin carboxylic acid are added to test tubes containing an aqueous solution formed by mixing 0.2 ml of 2 mM deoxyribose, 0.4 ml of buffer phosphate pH 7.4 100 mM and 0.1 ml of 1 mM Fe^II(NH4)2(SO4)2 in 2 mM HCl. […] A pink coloration develops the intensity of which is proportional to the quantity of deoxyribose undergone to radical oxidative degradation. The solutions are cooled at room temperature and their absorbances at 532 nm are read against the blank. […]

[4] = tested on: Human endothelial cells of the umbilical vein; experiment: Test 2 (CIP): apoptosis (DNA fragmentation) induced by cumene hydroperoxide in endothelial cells; format: cell-based; conditions: drug 10^-4 M; for inhibition of apoptosis induced by CIP (in words, t Student p<0.01): CIP 5 mM
Description: Test 2 (CIP): Protection parameter of endothelial cell against the oxidative stress induced by cumene hydroperoxide (CIP).
Human endothelial cells of the umbilical vein are prepared according to an usual standard procedure. Fresh umbilical veins are filled with a 0.1% by weight collagenase solution and incubated at 37° C. for 5 minutes.
The cells are collected from the perfusate by centrifugation and harvested in culture flasks T-75, pretreated with human fibronectin. The cells are then harvested in the same medium, further added with 10 ng/ml of bovine hypothalamic growth factor. When the cells of the primary cell culture (i.e. that directly obtained from ex-vivo) form a single layer of confluent cells (about 8,000,000 cells/flask), the culture is stopped and the layers washed and trypsinized. The cellular suspensions are transferred into the wells of a cell culture plate having 24 wells, half of which is then additioned with the same culture medium containing the drug at a 10^−4M concentration, and harvested in a thermostat at 37° C. at a constant moisture. Only the cells coming from said first sub-cultures are used for the experiments with cumene hydroperoxide (CIP).
Before starting the test, the cellular culture medium is removed and the cellular layers are carefully washed with a physiologic solution at a temperature of 37° C. The wells of the culture plate are then incubated for one hour with CIP at a 5 mM concentration in the culture medium. […] 5 replicates for each sample are carried out.
Human endothelial cells of the umbilical vein are prepared according to a standard method. Fresh umbilical veins are filled with a collagenase solution 0.1% by weight and incubated at 37° C. for 5 minutes.
The cells are collected from the perfusate by centrifugation at 800 rpm and harvested in culture flasks T-75, pretreated with human fibronectin. Cells are then harvested in the same medium, added with bovine hypothalamic growth factor (100 ng/ml). When the cells of the primary cell culture (the cells directly removed from ex-vivo umbilical vein) form a single layer of confluent cells (about 8,000,000 cells/flask), harvesting is stopped and the layers are washed and trypsinized. The cellular suspensions are transferred into wells of a culture plate having 24 wells, half of said wells being added with the same culture medium containing the drug at a 10^−4M concentration, and harvested in a thermostat at 37° C. at a constant moisture (90%), CO2=5%. When the drug is not soluble in the culture medium, it is formerly dissolved in a small amount of dimethylsulphoxide. The maximum amount of dimethylsulphoxide which can be added to the culture medium is 0.5%. Only the cells coming from these first subcultures are used for the tests with cumene hydroperoxide (CIP). The cells are identified as endothelial cells by morphological examination and by the specific immunological reaction towards factor VIII; these cultures did never show contaminations from myocytes or fibroblasts.
Before starting the test, the cellular culture medium is removed and the cellular layers are carefully washed with a standard physiologic solution buffered with phosphate 0.1 M pH 7.0, at the temperature of 37° C. The content of each well is then incubated for one hour with a CIP suspension in the culture medium at a 5 mM concentration. Evaluation of the cellular damage (apoptosis) is carried out by determining the percent variation of the DNA fragmentation in the cultures containing the drug+CIP with respect to the controls treated with CIP only. […] The fluorescence of each sample was determined on 5 replicates. Statistic evaluation has been made with t Student test (p<0.01).

gastric mucosa = experiment: Example F6: gastric tolerability of invention compounds versus precursor drugs, with or without L-NAME; format: in vivo, rats; conditions: rat, in vivo, 4 weeks
Excerpt: Gastric Tolerability Test of the Compounds According to the Invention in the Confront of the Corresponding Precursor Drugs in Conditions of Endothelial Dysfunctions Induced by L-NAME (N^w-nitro-L-arginine-methyl ester).

in vivo = conditions: rat, in vivo
Description: as §1

Compound: CCCCC(C)(O)C/C=C/[C@H]1[C@H](O)CC(=O)[C@@H]1CCCCCCC(=O)OC (mixture of isomers) [Misoprostol]
- Gastro-enteropathy (% incidence) with NEM (gastrointestinal mucosa; rats, NEM 25 mg/kg s.c. one hour before drug at maximum tolerated dose, sacrifice after 24 hours): 0%
- Gastro-enteropathy (% incidence) without NEM (gastrointestinal mucosa; rats, single maximum tolerated dose, sacrifice after 24 hours, without NEM): 0%
- GPT % without L-NAME [1]: 100%
- Gastroenteropathy % without L-NAME [1]: 0%
- maximum tolerated dose (dose (mg/Kg)/admin. route) (rats): 0.5/s.c. mg/Kg

Compound: O=C(O)C1CSCN1 (stereo not shown) [4-thiazolidin carboxylic acid]
- % inhibition radical production from DPPH [2]: 0%
- % inhibition radical production from DPPH ([2]; listed as 4-Thiazolidincarboxylic acid): does not inhibit at any extent
- % Radical Inhibition from Fe^II [3]: 100%

Compound: Nc1c(Br)cc(Br)cc1CN[C@H]1CC[C@H](O)CC1 [Ambroxol, 4-[(2-amino-3,5-dibromophenyl)methylamino]cyclohexanol]
- Gastro-enteropathy (% incidence) without NEM (gastrointestinal mucosa; rat, in vivo, 24 h): 0%
- activity at 100 µM ([4]; Homo sapiens, Endothelial cell, 1 h, CIP 5 mM for one hour, DNA fragmentation, read-out: Apoptosis % with respect to the controls treated only with CIP): 70%
- inhibition of apoptosis induced by CIP (in words, t Student p<0.01) [4]: inhibit apoptosis
- % gastropathy, animals not treated with L-NAME (gastric mucosa): 60%
- % gastropathy, animals treated with L-NAME (gastric mucosa): 80%
- MTD at 24 h (in vivo; po): 25 mg/kg

Compound: COc1ccc2[nH]c([S+]([O-])Cc3ncc(C)c(OC)c3C)nc2c1 (stereo not shown) [Omeprazol]
- Gastro-enteropathy (% incidence) without NEM (gastrointestinal mucosa; rat, in vivo, 24 h): 0%
- inhibition of apoptosis induced by CIP (in words, t Student p<0.01) [4]: do not significantly inhibit apoptosis
- GPT % without L-NAME [1]: 100%
- Gastroenteropathy % without L-NAME [1]: 0%
- MTD at 24 h (in vivo; sc): 30 mg/kg

Compound: Nc1c2c(nc3ccccc13)CCCC2 [Tacrine]
- Gastro-enteropathy (% incidence) without NEM (gastrointestinal mucosa; rat, in vivo, 24 h): 0%
- inhibition of apoptosis induced by CIP (in words, t Student p<0.01) [4]: do not significantly inhibit apoptosis
- % gastropathy, animals not treated with L-NAME (gastric mucosa): 80%
- % gastropathy, animals treated with L-NAME (gastric mucosa): 70%
- MTD at 24 h (in vivo; sc): 1 mg/kg

Compound: N[C@@H](Cc1c[nH]cn1)C(=O)O [histidine]
- % inhibition radical production from DPPH [2]: 0%
- % Radical Inhibition from Fe^II [3]: 90%

Compound: O=C(O)CCC(=O)O [succinic acid]
- % inhibition radical production from DPPH [2]: 0%
- % Radical Inhibition from Fe^II [3]: 90%
